Measurements reported in ChEMBL document CHEMBL3217615, “Novel 3,5-bis(arylidiene)-4-piperidone based monocarbonyl analogs of curcumin: anticancer activity evaluation and mode of action study” (2014).

Tests used:
Type in all cases: functional
IGROV-1 = assay: Growth inhibition of human IGROV1 cells assessed as cell growth at 10^-6 M after 48 hrs by sulforhodamine B assay; settings: IGROV-1, 48 h, read-out: Activity
NCI-H23 = assay: Growth inhibition of human NCI-H23 cells assessed as cell growth at 10^-4 M after 48 hrs by sulforhodamine B assay; settings: NCI-H23, 48 h, read-out: Activity
[1] = Growth inhibition of human HCC2998 cells assessed as cell growth at 10^-8 M after 48 hrs by sulforhodamine B assay; settings: HCC 2998, 48 h; for growth at 0.01 µM: read-out: Activity; for CC50: read-out: pLC50 (the source's name) (converted); for TGI: read-out: pTGI (converted)
HOP-62 = assay: Growth inhibition of human HOP62 cells assessed as cell growth at 10^-8 M after 48 hrs by sulforhodamine B assay; settings: HOP-62, 48 h; for growth at 0.01 µM: read-out: Activity; for TGI: read-out: pTGI (converted)
U-251 = assay: Growth inhibition of human U251 cells assessed as cell growth at 10^-6 M after 48 hrs by sulforhodamine B assay; settings: U-251, 48 h, read-out: Activity
HT-29 = assay: Growth inhibition of human HT-29 cells assessed as cell growth at 10^-6 M after 48 hrs by sulforhodamine B assay; settings: HT-29, 48 h, read-out: Activity
PC-3 = assay: Growth inhibition of human PC3 cells after 48 hrs by sulforhodamine B assay; settings: PC-3, 48 h; for CC50: read-out: LC50 (the source's name)
SNB-75 = assay: Growth inhibition of human SNB75 cells assessed as cell growth at 10^-4 M after 48 hrs by sulforhodamine B assay; settings: SNB-75, 48 h, read-out: Activity
CAKI-1 = assay: Growth inhibition of human CAKI-1 cells assessed as cell growth at 10^-8 M after 48 hrs by sulforhodamine B assay; settings: CAKI-1, 48 h; for growth at 0.01 µM: read-out: Activity; for CC50: read-out: pLC50 (the source's name) (converted); for TGI: read-out: pTGI (converted)
Malme-3M = assay: Growth inhibition of human MALME-3M cells after 48 hrs by sulforhodamine B assay; settings: for CC50: read-out: LC50 (the source's name)
[2] = Growth inhibition of human UO31 cells assessed as cell growth at 10^-7 M after 48 hrs by sulforhodamine B assay; settings: UO-31, 48 h, read-out: Activity
ACHN = assay: Growth inhibition of human ACHN cells assessed as cell growth at 10^-7 M after 48 hrs by sulforhodamine B assay; settings: read-out: Activity
[3] = Growth inhibition of human HCC2998 cells assessed as cell growth at 10^-4 M after 48 hrs by sulforhodamine B assay; settings: HCC 2998, 48 h, read-out: Activity
COLO 205 [4] = assay: Induction of apoptosis in human COLO205 cells assessed as DNA fragmentation at 10 uM
T47D = assay: Growth inhibition of human T47D cells assessed as cell growth at 10^-8 M after 48 hrs by sulforhodamine B assay; settings: for growth at 0.01 µM: read-out: Activity; for CC50: read-out: pLC50 (the source's name) (converted); for TGI: read-out: pTGI (converted)
SR [5] = assay: Growth inhibition of human SR cells after 48 hrs by sulforhodamine B assay; settings: for CC50: read-out: LC50 (the source's name)
[6] = Growth inhibition of human BT549 cells assessed as cell growth at 10^-6 M after 48 hrs by sulforhodamine B assay; settings: BT-549, 48 h, read-out: Activity
NCI-H226 = assay: Growth inhibition of human NCI-H226 cells assessed as cell growth at 10^-4 M after 48 hrs by sulforhodamine B assay; settings: NCI-H226, 48 h, read-out: Activity
HCT-116 = assay: Growth inhibition of human HCT116 cells assessed as cell growth at 10^-7 M after 48 hrs by sulforhodamine B assay; settings: HCT-116, 48 h, read-out: Activity
[7] = Growth inhibition of human OVCAR5 cells assessed as cell growth at 10^-6 M after 48 hrs by sulforhodamine B assay; settings: OVCAR-5, 48 h, read-out: Activity
SR [8] = assay: Growth inhibition of human SR cells assessed as cell growth at 10^-6 M after 48 hrs by sulforhodamine B assay; settings: read-out: Activity
K562 = assay: Growth inhibition of human K562 cells after 48 hrs by sulforhodamine B assay; settings: K562, 48 h; for CC50: read-out: LC50 (the source's name)
[9] = Growth inhibition of human NCI-ADR-RES cells assessed as cell growth at 10^-6 M after 48 hrs by sulforhodamine B assay; settings: read-out: Activity
KM12 = assay: Growth inhibition of human KM12 cells after 48 hrs by sulforhodamine B assay; settings: KM12, 48 h; for CC50: read-out: LC50 (the source's name)
[10] = Growth inhibition of human OVCAR4 cells after 48 hrs by sulforhodamine B assay; settings: OVCAR-4, 48 h; for CC50: read-out: LC50 (the source's name)
SK-OV-3 = assay: Growth inhibition of human SKOV3 cells assessed as cell growth at 10^-7 M after 48 hrs by sulforhodamine B assay; settings: SK-OV-3, 48 h, read-out: Activity
SF-268 = assay: Growth inhibition of human SF268 cells assessed as cell growth at 10^-4 M after 48 hrs by sulforhodamine B assay; settings: SF-268, 48 h, read-out: Activity
CCRF-CEM = assay: Growth inhibition of human CCRF-CEM cells after 48 hrs by sulforhodamine B assay; settings: for CC50: read-out: LC50 (the source's name)
[11] = Growth inhibition of human SF295 cells assessed as cell growth at 10^-8 M after 48 hrs by sulforhodamine B assay; settings: SF-295, 48 h; for growth at 0.01 µM: read-out: Activity; for TGI: read-out: pTGI (converted)
COLO 205 [12] = assay: Induction of apoptosis in human COLO205 cells at 10 uM after 24 hrs by Annexin V/propidium iodide staining-based fluorescence microscopy
[13] = Growth inhibition of human OVCAR8 cells assessed as cell growth at 10^-8 M after 48 hrs by sulforhodamine B assay; settings: OVCAR-8, 48 h; for growth at 0.01 µM: read-out: Activity; for TGI: read-out: pTGI (converted)
[14] = Growth inhibition of human HOP92 cells assessed as cell growth at 10^-6 M after 48 hrs by sulforhodamine B assay; settings: HOP-92, 48 h, read-out: Activity
[15] = Growth inhibition of human BT549 cells assessed as cell growth at 10^-4 M after 48 hrs by sulforhodamine B assay; settings: BT-549, 48 h, read-out: Activity
SNB-19 = assay: Growth inhibition of human SNB19 cells after 48 hrs by sulforhodamine B assay; settings: SNB-19, 48 h; for CC50: read-out: LC50 (the source's name)

O=C1/C(=C/c2ccc(Cl)cc2Cl)CN(S(=O)(=O)c2ccccc2)C/C1=C\c1ccc(Cl)cc1Cl
growth at 1 µM (IGROV-1): -30%
growth at 100 µM (NCI-H23): -28%
GI50 [1]: 0.38 µM
growth at 0.01 µM [1]: 102%
CC50 [1]: 4.57 µM
TGI [1]: 1.35 µM
GI50 (HOP-62): 0.389 µM
LC50 (concentration killing 50% of cells) (HOP-62): > 100 µM
growth at 0.01 µM (HOP-62): 103%
TGI (HOP-62): > 100 µM
growth at 1 µM (U-251): -64%
growth at 1 µM (HT-29): -8%
GI50 (PC-3): 0.291 µM
TGI (PC-3): 1.03 µM
CC50 (PC-3): > 100 µM
growth at 100 µM (SNB-75): -33%
GI50 (CAKI-1): 1.82 µM
growth at 0.01 µM (CAKI-1): 89%
CC50 (CAKI-1): > 100 µM
TGI (CAKI-1): 5.75 µM
GI50 (Malme-3M): 3.21 µM
CC50 (Malme-3M): > 100 µM
growth at 0.1 µM [2]: 93%
growth at 0.1 µM (ACHN): 96%
growth at 100 µM [3]: -66%
Activity (COLO 205 [4]): 45%
GI50 (T47D): 1.26 µM
growth at 0.01 µM (T47D): 99%
CC50 (T47D): > 100 µM
TGI (T47D): 100 µM
GI50 (SR [5]): 0.185 µM
TGI (SR [5]): 0.865 µM
CC50 (SR [5]): > 100 µM
growth at 1 µM [6]: 50%
growth at 100 µM (NCI-H226): -55%
growth at 0.1 µM (HCT-116): 95%
growth at 1 µM [7]: 80%
growth at 1 µM (SR [8]): -5%
GI50 (K562): 0.346 µM
TGI (K562): > 100 µM
CC50 (K562): > 100 µM
growth at 1 µM [9]: 54%
GI50 (KM12): 0.256 µM
TGI (KM12): 0.602 µM
CC50 (KM12): 25.7 µM
GI50 [10]: 0.279 µM
TGI [10]: > 100 µM
CC50 [10]: > 100 µM
growth at 0.1 µM (SK-OV-3): 102%
growth at 100 µM (SF-268): 4%
GI50 (CCRF-CEM): 0.286 µM
TGI (CCRF-CEM): 0.994 µM
CC50 (CCRF-CEM): > 100 µM
GI50 [11]: 0.347 µM
LC50 [11]: > 100 µM
growth at 0.01 µM [11]: 91%
TGI [11]: 6.61 µM
Activity (COLO 205 [12]): 66%
GI50 [13]: 0.229 µM
LC50 [13]: > 100 µM
growth at 0.01 µM [13]: 99%
TGI [13]: 0.955 µM
growth at 1 µM [14]: 72%
growth at 100 µM [15]: -42%
GI50 (SNB-19): 0.313 µM
TGI (SNB-19): 2.88 µM
CC50 (SNB-19): > 100 µM

Cc1ccc(S(=O)(=O)N2C/C(=C\c3cc(F)cc(F)c3)C(=O)/C(=C/c3cc(F)cc(F)c3)C2)cc1
growth at 1 µM (IGROV-1): 18%
growth at 100 µM (NCI-H23): -72%
GI50 [1]: 0.603 µM
growth at 0.01 µM [1]: 102%
CC50 [1]: 4.9 µM
TGI [1]: 1.91 µM
GI50 (HOP-62): 2.04 µM
LC50 (concentration killing 50% of cells) (HOP-62): 11.7 µM
growth at 0.01 µM (HOP-62): 98%
TGI (HOP-62): 4.68 µM
growth at 1 µM (U-251): -31%
growth at 1 µM (HT-29): -22%
GI50 (PC-3): 0.248 µM
TGI (PC-3): 0.803 µM
CC50 (PC-3): 9.28 µM
growth at 100 µM (SNB-75): -86%
GI50 (CAKI-1): 0.363 µM
growth at 0.01 µM (CAKI-1): 94%
CC50 (CAKI-1): 61.7 µM
TGI (CAKI-1): 2.45 µM
GI50 (Malme-3M): 0.274 µM
TGI (Malme-3M): 0.742 µM
CC50 (Malme-3M): 3.81 µM
growth at 0.1 µM [2]: 94%
growth at 0.1 µM (ACHN): 99%
growth at 100 µM [3]: -95%
Activity (COLO 205 [4]): 69.5%
GI50 (T47D): 1.78 µM
growth at 0.01 µM (T47D): 96%
CC50 (T47D): 53.7 µM
TGI (T47D): 6.03 µM
GI50 (SR [5]): 0.0348 µM
TGI (SR [5]): 0.252 µM
CC50 (SR [5]): > 100 µM
growth at 1 µM [6]: -4%
growth at 100 µM (NCI-H226): -32%
growth at 0.1 µM (HCT-116): 89%
growth at 1 µM [7]: 51%
growth at 1 µM (SR [8]): -20%
GI50 (K562): 0.0772 µM
TGI (K562): 1.37 µM
CC50 (K562): > 100 µM
growth at 1 µM [9]: 19%
GI50 (KM12): 0.327 µM
TGI (KM12): 1 µM
CC50 (KM12): 4.04 µM
GI50 [10]: 0.441 µM
TGI [10]: 5.23 µM
CC50 [10]: 36.3 µM
growth at 0.1 µM (SK-OV-3): 106%
growth at 100 µM (SF-268): -88%
GI50 (CCRF-CEM): 0.0748 µM
TGI (CCRF-CEM): 0.951 µM
CC50 (CCRF-CEM): > 100 µM
GI50 [11]: 0.468 µM
LC50 [11]: 15.8 µM
growth at 0.01 µM [11]: 92%
TGI [11]: 2.51 µM
Activity (COLO 205 [12]): 70%
GI50 [13]: 0.302 µM
LC50 [13]: 16.2 µM
growth at 0.01 µM [13]: 95%
TGI [13]: 1.78 µM
growth at 1 µM [14]: 55%
growth at 100 µM [15]: -95%
GI50 (SNB-19): 0.22 µM
TGI (SNB-19): 0.752 µM
CC50 (SNB-19): 2.82 µM
